Data: PMC2568955, “Structures of SRP54 and SRP19, the Two Proteins that Organize the Ribonucleic Core of the Signal Recognition Particle from Pyrococcus furiosus” (PLoS ONE, 2008)

Target: T1, Pfu-SRP54 (Pyrococcus furiosus, UniProt Q8U070)
T1 construct: full-length, pET28b, thrombin-cleavable His6 tag removed, E. coli BL21(DE3)-Rosetta2; free of SRP RNA and SRP19; two monomers per asymmetric unit (non-crystallographic dimer); finger loop L346-I365 disordered
T1 sequence (Q8U070 1-443): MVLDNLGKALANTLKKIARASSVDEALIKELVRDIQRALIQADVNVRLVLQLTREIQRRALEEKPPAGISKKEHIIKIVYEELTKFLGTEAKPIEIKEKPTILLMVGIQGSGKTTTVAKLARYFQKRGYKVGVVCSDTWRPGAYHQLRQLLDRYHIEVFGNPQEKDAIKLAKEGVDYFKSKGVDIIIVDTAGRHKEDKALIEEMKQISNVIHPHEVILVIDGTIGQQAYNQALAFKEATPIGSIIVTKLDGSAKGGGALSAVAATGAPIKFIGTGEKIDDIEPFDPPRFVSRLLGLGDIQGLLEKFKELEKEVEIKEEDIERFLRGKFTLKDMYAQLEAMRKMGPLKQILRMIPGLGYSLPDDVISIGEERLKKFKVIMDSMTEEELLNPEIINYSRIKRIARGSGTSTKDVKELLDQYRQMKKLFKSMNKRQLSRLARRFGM
Experiment: X-ray crystal structure, […] Å
Assay type: binding
Conditions: co-crystallised with 10 mM GDP; 1.0-1.3 M lithium sulfate, 100 mM sodium acetate pH 5.0; room temperature; GTPase active site in G domain, no clear Mg ion

## Nc1nc2c(ncn2[C@@H]2O[C@H](COP(=O)(O)OP(=O)(O)O)[C@@H](O)[C@H]2O)c(=O)[nH]1 [GDP]
  X-ray crystal structure, 2.5 Å: Pfu-SRP54 was co-crystallized in presence of GDP, and the nucleotide is clearly identified
